# ChEMBL document CHEMBL4680174, “Synthesis, biological evaluation and in silico modeling of novel integrase strand transfer inhibitors (INSTIs)” (Eur J Med Chem, 2020)
# Assays:
# [1] = tested on: Human immunodeficiency virus 1; test: Antiviral activity against HIV1 3B infected in human CEM-SS cells assessed as reduction in cytopathic effect after 4 days; assay type: functional, organism-based
# [2] = Cytotoxicity against human CEM-SS cells assessed as reduction in cell viability by XTT assay; assay type: cell-based
# [3] = Selectivity index, ratio of CC50 for human CEM-SS cells to EC50 for Antiviral activity against HIV1 3B infected in human CEM-SS cells; assay type: toxicity, cell-based; conditions: for selectivity ratio: CEM-SS cells, read-out: Ratio CC50/EC50
# [4] = Thermodynamic solubility of compound in water at 2 mg after 24 hrs; assay type: physicochemical; conditions: read-out: Therm_solubility
# [5] = Thermodynamic solubility of compound in plON buffer at 2 mg after 24 hrs; assay type: physicochemical; conditions: read-out: Therm_solubility
# [6] = Drug concentration in Sprague-Dawley rat at 1 mg/kg, iv after 8 hrs by LC-MS/MS analysis; assay type: ADME, organism-based; conditions: in vivo, read-out: Drug uptake
# [7] = Drug concentration in Sprague-Dawley rat at 1 mg/kg, iv after 24 hrs by LC-MS/MS analysis; assay type: ADME, organism-based; conditions: in vivo, read-out: Drug uptake
# [8] = Tmax in Sprague-Dawley rat at 1 mg/kg, iv up to 24 hrs by LC-MS/MS analysis; assay type: ADME, organism-based; conditions: in vivo
# [9] = Elimination rate constant Sprague-Dawley rat at 1 mg/kg, iv up to 24 hrs by LC-MS/MS analysis; assay type: ADME, organism-based; conditions: in vivo
# [10] = Drug concentration in Sprague-Dawley rat at 5 mg/kg, po after 8 hrs by LC-MS/MS analysis; assay type: ADME, organism-based; conditions: in vivo, read-out: Drug uptake
# [11] = Drug concentration in Sprague-Dawley rat at 5 mg/kg, po after 24 hrs by LC-MS/MS analysis; assay type: ADME, organism-based; conditions: in vivo, read-out: Drug uptake
# [12] = Tmax in Sprague-Dawley rat at 5 mg/kg, po up to 24 hrs by LC-MS/MS analysis; assay type: ADME, organism-based; conditions: in vivo
# [13] = Elimination rate constant Sprague-Dawley rat at 5 mg/kg, po up to 24 hrs by LC-MS/MS analysis; assay type: ADME, organism-based; conditions: in vivo
# [14] = Oral bioavailability in Sprague-Dawley rat at 5 mg/kg up to 24 hrs by LC-MS/MS analysis; assay type: ADME, organism-based; conditions: in vivo
# [15] = Stability in human liver microsomes assessed as parent compound remaining at 1 uM up to 24 hrs by LC-MS/MS analysis; assay type: ADME, Microsome; conditions: read-out: Stabilty
# [16] = Stability in rat liver microsomes assessed as parent compound remaining at 1 uM up to 24 hrs by LC-MS/MS analysis; assay type: ADME, Microsome; conditions: read-out: Stabilty
# [17] = Stability in human plasma assessed as parent compound remaining at 1 uM up to 24 hrs by LC-MS/MS analysis; assay type: ADME, cell-free; conditions: read-out: Stabilty
# [18] = Stability in rat plasma assessed as parent compound remaining at 1 uM up to 24 hrs by LC-MS/MS analysis; assay type: ADME, cell-free; conditions: read-out: Stabilty
# [19] = Protein binding in human plasma at 1 uM after 4 hrs by LC-MS/MS analysis; assay type: ADME, cell-free; conditions: read-out: PPB
# [20] = Protein binding in rat plasma at 1 uM after 4 hrs by LC-MS/MS analysis; assay type: ADME, cell-free; conditions: read-out: PPB (converted)
# Cytochrome P450 1A2 = molecular target: T1, Cytochrome P450 1A2 (Homo sapiens, UniProt P05177); test: Inhibition of CYP1A2 in human liver microsomes using phenacetin as substrate incubated for 30 mins by LC-MS/MS analysis; assay type: ADME
# T1 sequence (P05177 whole entry): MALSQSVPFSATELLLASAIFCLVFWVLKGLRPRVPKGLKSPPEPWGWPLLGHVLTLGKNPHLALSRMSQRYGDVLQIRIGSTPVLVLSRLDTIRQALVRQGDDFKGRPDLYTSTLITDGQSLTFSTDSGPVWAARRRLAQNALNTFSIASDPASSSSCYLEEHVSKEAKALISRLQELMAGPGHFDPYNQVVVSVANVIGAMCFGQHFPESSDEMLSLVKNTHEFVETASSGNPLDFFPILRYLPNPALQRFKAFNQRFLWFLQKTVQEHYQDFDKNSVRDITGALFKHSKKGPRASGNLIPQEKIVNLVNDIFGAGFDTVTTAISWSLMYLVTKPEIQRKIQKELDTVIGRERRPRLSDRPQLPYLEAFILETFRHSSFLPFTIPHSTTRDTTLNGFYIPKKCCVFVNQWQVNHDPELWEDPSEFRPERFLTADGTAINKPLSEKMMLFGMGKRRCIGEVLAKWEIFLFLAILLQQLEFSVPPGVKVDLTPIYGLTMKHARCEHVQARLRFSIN
# Cytochrome P450 2C19 = Cytochrome P450 2C19 (Homo sapiens, UniProt P33261); test: Inhibition of CYP2C19 in human liver microsomes using S-mephenytoin as substrate incubated for 30 mins by LC-MS/MS analysis; assay type: ADME
# Sequence of Cytochrome P450 2C19 (P33261 whole entry): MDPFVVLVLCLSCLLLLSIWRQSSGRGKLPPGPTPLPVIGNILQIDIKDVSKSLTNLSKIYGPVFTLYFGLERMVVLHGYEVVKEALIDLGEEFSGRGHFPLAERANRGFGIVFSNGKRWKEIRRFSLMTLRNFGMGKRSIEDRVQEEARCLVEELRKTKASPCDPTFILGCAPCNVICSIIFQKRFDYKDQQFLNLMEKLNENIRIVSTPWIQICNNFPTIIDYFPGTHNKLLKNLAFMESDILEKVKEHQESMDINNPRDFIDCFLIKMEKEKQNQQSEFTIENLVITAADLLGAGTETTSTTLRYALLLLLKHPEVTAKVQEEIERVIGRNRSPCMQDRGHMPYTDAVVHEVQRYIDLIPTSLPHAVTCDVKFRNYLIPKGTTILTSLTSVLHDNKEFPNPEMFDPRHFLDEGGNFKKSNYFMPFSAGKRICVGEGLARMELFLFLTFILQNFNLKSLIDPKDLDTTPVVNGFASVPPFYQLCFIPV
# Cytochrome P450 2C9 = Cytochrome P450 2C9 (Homo sapiens, UniProt P11712); test: Inhibition of CYP2C9 in human liver microsomes using tolbutamide as substrate incubated for 30 mins by LC-MS/MS analysis; assay type: ADME
# Sequence of Cytochrome P450 2C9 (P11712 whole entry): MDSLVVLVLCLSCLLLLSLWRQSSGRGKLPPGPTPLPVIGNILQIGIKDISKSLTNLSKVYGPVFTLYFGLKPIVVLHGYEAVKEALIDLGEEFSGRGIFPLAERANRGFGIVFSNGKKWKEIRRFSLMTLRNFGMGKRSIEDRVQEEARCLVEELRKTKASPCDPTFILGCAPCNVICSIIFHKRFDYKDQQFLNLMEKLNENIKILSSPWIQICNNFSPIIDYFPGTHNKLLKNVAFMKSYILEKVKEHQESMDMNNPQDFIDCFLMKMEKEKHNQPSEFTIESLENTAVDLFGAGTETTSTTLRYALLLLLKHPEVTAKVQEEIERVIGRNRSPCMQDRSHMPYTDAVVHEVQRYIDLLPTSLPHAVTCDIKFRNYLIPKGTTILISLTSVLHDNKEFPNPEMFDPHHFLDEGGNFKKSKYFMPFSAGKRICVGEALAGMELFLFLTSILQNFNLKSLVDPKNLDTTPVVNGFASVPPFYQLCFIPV
# Cytochrome P450 2D6 = Cytochrome P450 2D6 (Homo sapiens, UniProt P10635); test: Inhibition of CYP2D6 in human liver microsomes using dextromethorphan as substrate incubated for 30 mins by LC-MS/MS analysis; assay type: ADME
# Sequence of Cytochrome P450 2D6 (P10635 whole entry): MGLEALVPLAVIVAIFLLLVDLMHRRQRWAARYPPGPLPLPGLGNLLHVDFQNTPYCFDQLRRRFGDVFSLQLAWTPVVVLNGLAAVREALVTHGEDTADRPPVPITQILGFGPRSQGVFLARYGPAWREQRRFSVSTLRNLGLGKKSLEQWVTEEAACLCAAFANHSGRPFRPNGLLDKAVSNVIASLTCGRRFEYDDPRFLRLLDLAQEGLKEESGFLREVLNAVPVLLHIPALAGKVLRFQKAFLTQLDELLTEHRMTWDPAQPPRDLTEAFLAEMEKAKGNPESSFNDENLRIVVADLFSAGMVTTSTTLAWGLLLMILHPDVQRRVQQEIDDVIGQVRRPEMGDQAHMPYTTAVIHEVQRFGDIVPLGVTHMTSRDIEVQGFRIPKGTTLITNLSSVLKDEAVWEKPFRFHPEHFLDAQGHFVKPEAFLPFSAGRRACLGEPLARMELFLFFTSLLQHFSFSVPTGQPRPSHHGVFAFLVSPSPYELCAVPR
# Cytochrome P450 3A4 = Cytochrome P450 3A4 (Homo sapiens, UniProt P08684); test: Inhibition of CYP3A4 in human liver microsomes using midazolam as substrate incubated for 30 mins by LC-MS/MS analysis; assay type: ADME
# Sequence of Cytochrome P450 3A4 (P08684 whole entry): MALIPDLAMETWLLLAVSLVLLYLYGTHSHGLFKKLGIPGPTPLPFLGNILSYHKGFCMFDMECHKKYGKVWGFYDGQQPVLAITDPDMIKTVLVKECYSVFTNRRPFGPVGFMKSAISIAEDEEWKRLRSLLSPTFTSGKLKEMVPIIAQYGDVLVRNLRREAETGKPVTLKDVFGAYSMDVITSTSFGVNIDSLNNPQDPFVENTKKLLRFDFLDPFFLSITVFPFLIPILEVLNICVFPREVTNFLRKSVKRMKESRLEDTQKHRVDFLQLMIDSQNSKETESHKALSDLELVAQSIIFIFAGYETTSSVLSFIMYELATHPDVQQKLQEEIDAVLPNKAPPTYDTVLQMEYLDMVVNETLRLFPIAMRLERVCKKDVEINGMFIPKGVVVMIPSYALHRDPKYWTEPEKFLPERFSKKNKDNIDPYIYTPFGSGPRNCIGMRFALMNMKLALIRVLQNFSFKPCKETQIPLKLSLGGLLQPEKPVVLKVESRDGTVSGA
# Cytochrome P450 2C8 = molecular target: T2, Cytochrome P450 2C8 (Homo sapiens, UniProt P10632); test: Inhibition of CYP2C8 in human liver microsomes using amodiaquine as substrate incubated for 30 mins by LC-MS/MS analysis; assay type: ADME
# T2 sequence (P10632 whole entry): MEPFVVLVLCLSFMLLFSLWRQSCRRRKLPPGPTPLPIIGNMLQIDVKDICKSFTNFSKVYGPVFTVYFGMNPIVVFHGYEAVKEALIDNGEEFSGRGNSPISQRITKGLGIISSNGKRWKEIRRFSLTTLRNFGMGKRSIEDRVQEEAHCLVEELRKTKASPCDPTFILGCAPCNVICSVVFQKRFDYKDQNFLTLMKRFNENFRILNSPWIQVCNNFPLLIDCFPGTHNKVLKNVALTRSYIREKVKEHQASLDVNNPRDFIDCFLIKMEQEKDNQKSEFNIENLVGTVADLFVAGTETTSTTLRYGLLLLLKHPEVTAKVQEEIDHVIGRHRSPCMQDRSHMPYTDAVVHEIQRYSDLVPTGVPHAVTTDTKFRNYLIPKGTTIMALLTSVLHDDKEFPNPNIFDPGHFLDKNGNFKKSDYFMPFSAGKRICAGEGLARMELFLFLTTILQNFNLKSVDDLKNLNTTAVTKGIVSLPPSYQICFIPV
# [21] = Human immunodeficiency virus 1, 3B, CEM-SS, 96 h
smiles,measurement,setting,value
C[C@H]1CO[C@@H]2Cn3cc(C(=O)NCc4nn(C)c(Cl)c4Cl)c(=O)c(O)c3C(=O)N12,EC50,[1]; [21],0.00059 µM
same,CC50,[2],> 0.01 µM
same,selectivity ratio,[3],> 16.9
same,solubility thermodynamic at 24 h,[4],0.318 mg/mL
same,solubility thermodynamic at 24 h,[5],0.318 mg/mL
C[C@H]1CO[C@@H]2Cn3cc(C(=O)NCc4ccnc5ccccc45)c(=O)c(O)c3C(=O)N12,solubility thermodynamic at 24 h,[4],0.031 mg/mL
same,solubility thermodynamic at 24 h,[5],0.008 mg/mL
C[C@H]1CO[C@@H]2Cn3cc(C(=O)NCc4cccc5cccnc45)c(=O)c(O)c3C(=O)N12,EC50,[1]; [21],0.00217 µM
same,CC50,[2],> 0.01 µM
same,selectivity ratio,[3],> 4.6
same,solubility thermodynamic at 24 h,[4],0.01 mg/mL
same,solubility thermodynamic at 24 h,[5],0.006 mg/mL
C[C@H]1CO[C@@H]2Cn3cc(C(=O)NCc4ccc(F)nc4F)c(=O)c(O)c3C(=O)N12,EC50,[1]; cem-ss,0.00024 µM
same,CC50,[2],> 0.01 µM
same,Ratio CC50/EC50,[3],> 41.7
same,concentration at 8 h,[6],8.62 µg/mL
same,concentration at 24 h,[7],5.43 µg/mL
same,Tmax,[8],4.8 min
same,k el at 24 h,[9],8.33e-06 s⁻¹
same,concentration at 8 h,[10],7.91 µg/mL
same,concentration at 24 h,[11],4.44 µg/mL
same,Tmax,[12],3 h
same,k el at 24 h,[13],1.11e-05 s⁻¹
same,bioavailability,[14],17.5%
same,"remaining at 24 h, 1 µM",[15],84%
same,"remaining at 24 h, 1 µM",[16],83.8%
same,"remaining at 24 h, 1 µM",[17],95%
same,"remaining at 24 h, 1 µM",[18],94.5%
same,"fraction unbound at 4 h, 1 µM",[19],0.001
same,"fraction unbound at 4 h, 1 µM",[20],0.011
same,solubility thermodynamic at 24 h,[4],0.269 mg/mL
same,solubility thermodynamic at 24 h,[5],0.232 mg/mL
same,IC50,Cytochrome P450 1A2,> 10 µM
same,IC50,Cytochrome P450 2C19,> 10 µM
same,IC50,Cytochrome P450 2C9,> 10 µM
same,IC50,Cytochrome P450 2D6,> 10 µM
same,IC50,Cytochrome P450 3A4,> 10 µM
same,IC50,Cytochrome P450 2C8,> 10 µM
